Laboratory results reported in patent US10017509B2, “Macrocylic pyrimidine derivatives” (Janssen Pharmaceutica NV, priority 2014, dated 2018).

What was measured:
[1] = target: T1, EF2K (Homo sapiens, UniProt O00418); assay: Biochemical EF2K lysate-based kinase assay (AlphaLISA p-eEF2 Thr56); conditions: pIC50 = -log IC50 (M), read-out: eEF2K_C_alphalisa pIC50 (converted)
T1 construct: host or cells: LN-229 cell lysate
T1 sequence (O00418 1-725): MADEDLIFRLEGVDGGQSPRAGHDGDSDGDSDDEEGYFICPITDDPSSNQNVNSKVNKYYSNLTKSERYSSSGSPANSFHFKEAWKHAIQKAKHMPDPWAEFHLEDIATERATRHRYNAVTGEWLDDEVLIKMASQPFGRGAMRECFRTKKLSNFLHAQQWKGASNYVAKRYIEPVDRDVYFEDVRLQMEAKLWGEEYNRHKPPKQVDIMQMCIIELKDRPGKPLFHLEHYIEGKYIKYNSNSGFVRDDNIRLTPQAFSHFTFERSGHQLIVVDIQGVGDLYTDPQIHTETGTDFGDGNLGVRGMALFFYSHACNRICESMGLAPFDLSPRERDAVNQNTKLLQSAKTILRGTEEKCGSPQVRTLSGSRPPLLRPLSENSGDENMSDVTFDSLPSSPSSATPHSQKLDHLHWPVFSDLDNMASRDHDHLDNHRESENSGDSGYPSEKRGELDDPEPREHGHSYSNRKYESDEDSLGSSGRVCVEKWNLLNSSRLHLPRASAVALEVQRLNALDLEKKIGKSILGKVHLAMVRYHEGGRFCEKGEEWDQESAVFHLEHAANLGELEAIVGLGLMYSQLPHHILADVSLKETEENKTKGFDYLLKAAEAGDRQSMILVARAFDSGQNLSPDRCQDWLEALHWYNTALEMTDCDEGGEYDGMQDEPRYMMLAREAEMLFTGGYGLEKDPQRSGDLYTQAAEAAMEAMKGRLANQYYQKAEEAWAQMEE
Text: Biochemical EF2K Lysate-Based Kinase Assay
LN-229 cells were purchased from ATCC (CRL-2611); these are glioblastoma cells. Cell lysates from LN229 were used in this kinase assay to provide both the kinase and the substrate (EF2). The AlphaLISA p-eEF2 (Thr56) detection assay was developed using a sandwich assay format with two specific antibodies recognizing different epitopes of the target, including one antibody against the phosphorylation site of interest. One anti-eEF2 antibody was conjugated onto AlphaLISA Acceptor beads, while the second antibody was biotinylated and captured by streptavidin coated Donor beads.
Compound was mixed with LN-229 cell lysates in the presence of a kinase buffer (e.g. HEPES) at a pH of 6.6, containing 10 mM Mg^2+ (e.g. magnesium acetate) and 10 mM adenosine-tri-phosphate (ATP) and incubated at room temperature for 15 minutes. The kinase reaction was stopped with excess ethylenediaminetetraacetic acid disodium salt and the biotinylated-anti phospho eEF2 antibody (3 nM) was added for 1 hour. Then the anti-EF2 acceptor beads (10 μg/ml) as well as the streptavidin coated donor beads (20 μg/ml) were added for 1 hour, and the AlphaLISA signal was measured in an Envision instrument once, left overnight, and measured again for the final read.
(§1) (pIC50 is −log IC50 where IC50 represents the concentration expressed in M at which the test compound gives 50% inhibition)

[2] = target: T1, EF2K; assay: EF2K cell-based assay (P-EF2 AlphaLISA, 2-deoxyglucose stimulated MCF10A cells); conditions: 2.5 mM 2-deoxyglucose stimulated, P-EF2 Thr56, pIC50 = -log IC50 (M), read-out: eEF2K_C_PThr56 pIC50 (converted)
Method: In this assay, 2.5 mM 2-deoxyglucose was used to deplete intracellular ATP and activate 5′ adenosine monophosphate-activated protein kinase (AMPK) in the immortalized epithelial breast cell lines, MCF10A. MCF 10A cells were purchased from ATCC (CRL-10317).
MCF10A cells are seeded at a density of 1.25×10^5 Cells/ml at 100 μl/well in a 96-well plate and incubated for 24 hours (37° C., 5% CO2). Compound is added for 1 hour, and cell are stimulated with 2.5 mM of 2-deoxy-glucose for 4 hours. Medium is then removed, and cells are lysed in an ice-cold buffer M-PER (Thermo Scientific, 78501), containing protease and phosphatase inhibitors. P-EF2 levels are determined in these lysates using the P-EF2 AlphaLISA described above.
as §1

[3] = target: Vps34 (PIK3C3 lipid kinase) (Homo sapiens, UniProt Q8NEB9); assay: Biochemical Vps34 lipid kinase assay (ADP-Glo); conditions: for remaining activity at 1 µM: 1 h, read-out: VPS34_1microM_% of cntrl; for remaining activity at 1 µM / VPS34_1microM_% of cntrl: single dose 1 μM compound, residual activity compared to control (DMSO); for IC50: serial half-log dilution 10 μM to 0.3 nM, pIC50 = -log IC50 (M)
Method: Biochemical Vps34 Lipid Kinase Assay
A non-radiometric kinase assay (ADP-Glo™ Assay, Promega, Madison, Wi, USA) was used for measuring the kinase activity of the PIK3C3 lipid kinase. All kinase assays were performed in 96-well half-area microtiter plates in a 25 μl reaction volume. The reaction cocktail was pipetted in 3 steps in the following order: • 10 μl of ATP solution (in assay buffer, see below) • 5 μl of test sample in 5% DMSO 10 μl of enzyme/substrate mixture
All lipid kinase assays contained 50 mM HEPES (4-(2-hydroxyethyl)-1-piperazineethanesulfonic acid)-NaOH, pH 7.5, 1 mM EGTA ((ethylene glycol tetraacetic acid), 100 mM NaCl, 0.03% CHAPS (3-[(3-Cholamidopropyl)dimethylammonio]-1-propanesulfonate), 2 mM DTT (Dithiothreitol), 20 μM ATP (corresponding to the apparent ATP-Km), kinase (7.6 nM) and substrate (50 μM). The assay for PIK3C3 additionally contained 3 mM MnCl2.
The reaction cocktails were incubated at 30° C. for 60 minutes. The reaction was stopped with 25 μl ADP-Go™ reagent per well. Plates were incubated for 40 minutes at room temperature, followed by addition of 50 μl kinase detection reagent per well and incubation for 60 minutes at room temperature. Signal was determined with a microplate luminescence reader (Victor, Perkin Elmer). The assay was either performed using a single dose of compound (1 μM final concentration in the assay reaction) with resulting data expressed as residual activity compared to control (DMSO), or using a serial (half-log) dilution of compounds starting at 10 μM and down to 0.3 nM (final concentrations in the assay) with data expressed as the pIC50.
as §1

Sequence of Vps34 (PIK3C3 lipid kinase) (Q8NEB9 whole entry, species assumed): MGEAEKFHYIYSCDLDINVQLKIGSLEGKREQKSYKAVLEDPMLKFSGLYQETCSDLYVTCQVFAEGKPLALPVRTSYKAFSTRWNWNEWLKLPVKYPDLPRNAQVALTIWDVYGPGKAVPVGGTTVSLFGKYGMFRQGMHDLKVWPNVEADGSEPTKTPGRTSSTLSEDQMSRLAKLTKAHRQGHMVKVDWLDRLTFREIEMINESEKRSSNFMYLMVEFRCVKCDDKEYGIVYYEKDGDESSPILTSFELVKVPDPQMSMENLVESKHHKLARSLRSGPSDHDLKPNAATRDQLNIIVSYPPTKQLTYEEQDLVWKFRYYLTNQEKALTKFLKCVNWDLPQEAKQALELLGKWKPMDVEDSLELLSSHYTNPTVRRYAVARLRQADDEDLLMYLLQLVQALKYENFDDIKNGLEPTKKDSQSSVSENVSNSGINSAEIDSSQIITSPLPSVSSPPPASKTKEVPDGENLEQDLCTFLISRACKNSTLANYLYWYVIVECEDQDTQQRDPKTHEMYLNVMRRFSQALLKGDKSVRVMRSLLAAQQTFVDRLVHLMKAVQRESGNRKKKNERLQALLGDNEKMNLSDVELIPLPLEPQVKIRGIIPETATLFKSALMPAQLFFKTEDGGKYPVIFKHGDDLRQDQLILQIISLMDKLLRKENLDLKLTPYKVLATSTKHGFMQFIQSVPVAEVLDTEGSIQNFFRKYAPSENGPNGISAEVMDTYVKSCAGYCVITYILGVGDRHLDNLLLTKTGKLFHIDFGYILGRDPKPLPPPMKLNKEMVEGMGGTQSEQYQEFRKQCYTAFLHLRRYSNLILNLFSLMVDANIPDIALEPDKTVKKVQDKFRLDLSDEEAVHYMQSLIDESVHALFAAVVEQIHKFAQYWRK

## CN1CCCNc2ccc(cn2)-c2ccnc(n2)Nc2cccc(c2)CN2CCC(CC2)CC1=O [Compound 124]
[1]
  IC50: > 3.02e-05 M
[2]
  IC50: > 3.02e-05 M
[3]
  remaining activity at 1 µM: 53.2%

## COCCN1CCNc2ccc(cn2)-c2ccnc(n2)Nc2cccc(c2)CN2CCN(CC2)CC1=O [Compound 123]
[1]
  IC50: 8.71e-06 M
[2]
  IC50: > 3.02e-05 M
[3]
  remaining activity at 1 µM: 23.6%
  IC50: 3.89e-06 M

## O=C1CN2CCN(CC2)Cc2cccc(c2F)Nc2nccc(n2)-c2ccc(nc2)NCCCN1 [Compound 4]
[1]
  IC50: 8.32e-08 M
[2]
  IC50: 8.71e-06 M
[3]
  remaining activity at 1 µM: 29.3%
  IC50: 4.79e-07 M

## O=C1CN2CCN(CC2)Cc2cccc(c2)Nc2nccc(n2)-c2ccc(nc2)N2CC(O)CC2CCN1 (single isomer, unassigned) [Compound 89]
[1]
  IC50: ~6.31e-06 M
[2]
  IC50: > 3.02e-05 M
[3]
  remaining activity at 1 µM: 13.6%
  IC50: 4.68e-08 M

## CC1C(=O)N(C)CCCN(C)c2ccc(cn2)-c2ccnc(n2)Nc2cccc(c2)CN2CCN1CC2 (centres unmarked) [Compound 67]
[1]
  IC50: 1.29e-07 M
[2]
  IC50: 3.89e-06 M
[3]
  remaining activity at 1 µM: 32.1%

## O=C1CN2CCN(CC2)Cc2cccc(c2)Nc2nccc(n2)-c2ccc(nc2)NCCN1 [Compound 119]
[1]
  IC50: 7.94e-07 M
[2]
  IC50: 5.01e-06 M
[3]
  remaining activity at 1 µM: 15.7%
  IC50: 1.7e-07 M

## O=C1CC2CCN(CC2)Cc2cccc(c2)Nc2nccc(n2)-c2ccc(nc2)NCCCN1 [Compound 79]
[1]
  IC50: > 3.02e-05 M
[2]
  IC50: > 3.02e-05 M
[3]
  remaining activity at 1 µM: 24.3%
  IC50: 6.03e-07 M

## O=C1CN2CCN(CC2)Cc2cccc(c2)Nc2nccc(n2)-c2ccc(nc2)CN(CCOCC(F)(F)F)CCN1 [Compound 41]
[1]
  IC50: ~4.47e-07 M
[2]
  IC50: 1.78e-06 M
[3]
  remaining activity at 1 µM: 30.8%

## CN1CCCN(C)c2ccc(cn2)-c2ccnc(n2)Nc2cccc(c2)S(=O)(=O)N2CCN(CC2)CC1=O [Compound 27]
[1]
  IC50: 2.95e-06 M
[2]
  IC50: > 3.02e-05 M
[3]
  remaining activity at 1 µM: 50.7%

## CN1CCCNC(=O)CN2CCN(CC2=O)Cc2cccc(c2)Nc2nccc(n2)-c2ccc1nc2 [Compound 78]
[1]
  IC50: 1.2e-06 M
[2]
  IC50: > 3.02e-05 M
[3]
  remaining activity at 1 µM: 7.48%
  IC50: 1.32e-07 M

## CN1CCN2Cc3cccc(c3)Nc3nccc(n3)-c3ccc(nc3)NCCCNC(=O)CC1C2 (centres unmarked) [Compound 71]
[1]
  IC50: 7.59e-06 M
[2]
  IC50: > 3.02e-05 M
[3]
  remaining activity at 1 µM: 12%
  IC50: 1.74e-08 M

## O=C1CN2CCN(CC2)Cc2cc(ccc2F)Nc2nccc(n2)-c2ccc(nc2)NCCCN1 [Compound 2]
[1]
  IC50: 6.31e-08 M
[2]
  IC50: 5.75e-06 M
[3]
  remaining activity at 1 µM: 4.44%
  IC50: 1e-07 M

## CN1CCCN(C)c2ccc(cn2)-c2ccnc(n2)Nc2cncc(c2)CN2CCN(CC2)CC1=O [Compound 33]
[1]
  IC50: 6.61e-07 M
[2]
  IC50: 2.14e-05 M
[3]
  remaining activity at 1 µM: 23.9%
  IC50: 7.41e-07 M

## O=C1CN2CCN(CC2)Cc2cccc(c2)Nc2nccc(n2)-c2ccc(nc2)NCC(O)CN1 (single isomer, unassigned) [Compound 25]
[1]
  IC50: 2.88e-06 M
[2]
  IC50: > 3.02e-05 M
[3]
  remaining activity at 1 µM: 6.36%
  IC50: 7.76e-08 M

## O=C1CN2CCN(CC2)Cc2cccc(c2)Nc2nccc(n2)-c2ccc(nc2)CN(CC2CC2)CCN1 [Compound 35]
[1]
  IC50: 9.33e-09 M
[2]
  IC50: 1.32e-07 M
[3]
  IC50: 7.76e-08 M

## O=C1CN2CCN(CC2)S(=O)(=O)c2cccc(c2)Nc2nccc(n2)-c2ccc(nc2)NCCCN1 [Compound 116]
[1]
  IC50: 7.76e-06 M
[2]
  IC50: > 3.02e-05 M
[3]
  remaining activity at 1 µM: 14%
  IC50: 4.47e-07 M

## COCC1C(=O)NCCCNc2ccc(cn2)-c2ccnc(n2)Nc2cccc(c2)CN2CCN1CC2 (centres unmarked) [Compound 66]
[1]
  IC50: 7.76e-08 M
[2]
  IC50: 4.17e-06 M
[3]
  remaining activity at 1 µM: 6.72%
  IC50: 1.41e-07 M

## CN1CCCN(C)c2ccc(cn2)-c2ccnc(n2)Nc2cccc(c2)CN2CCN(CC1=O)C(CO)C2 (single isomer, unassigned) [Compound 95]
[1]
  IC50: 8.32e-07 M
[2]
  IC50: > 3.02e-05 M
[3]
  remaining activity at 1 µM: 18.8%
  IC50: 3.47e-07 M

## CC1CN2CCN1CC(=O)NCCCNc1ccc(cn1)-c1ccnc(n1)Nc1cccc(c1)C2 (single isomer, unassigned) [Compound 136]
[1]
  IC50: 1.45e-07 M
[2]
  IC50: ~8.51e-06 M
[3]
  IC50: 1.66e-08 M
  VPS34_1microM_% of cntrl: 3.08 % of cntrl

## CNC(=O)c1ccc2cc1CN1CCN(CC1)CC(=O)NCCCNc1ccc(cn1)-c1ccnc(n1)N2 [Compound 13]
[1]
  IC50: 3.98e-07 M
[2]
  IC50: 6.76e-06 M
[3]
  remaining activity at 1 µM: 9%
  IC50: 8.71e-08 M

## CN1CCCN(C)c2ccc(cn2)-c2ccnc(n2)Nc2cccc(c2)CN2CCC(CC2)CC1=O [Compound 81]
[1]
  IC50: 2.4e-06 M
[2]
  IC50: 1.82e-05 M
[3]
  remaining activity at 1 µM: 26.4%
  IC50: 8.91e-07 M

## O=C1CNCCCNc2ccc(cn2)-c2ccnc(n2)Nc2cccc(c2)CN2CCN1CC2 [Compound 112]
[1]
  IC50: 3.89e-06 M
[2]
  IC50: 7.41e-06 M
[3]
  remaining activity at 1 µM: 6.25%
  IC50: 6.03e-08 M

## CN1CCCN(C)c2ncc(cn2)-c2ccnc(n2)Nc2cccc(c2)CN2CCN(CC2)CC1=O [Compound 84]
[1]
  IC50: 2.88e-07 M
[2]
  IC50: 8.71e-06 M
[3]
  remaining activity at 1 µM: 30.6%

## O=C1CN2CCN(Cc3cccc(c3)Nc3nccc(n3)-c3ccc(nc3)NCCCN1)C(CO)C2 (single isomer, unassigned) [Compound 47]
[1]
  IC50: < 3.02e-08 M
[2]
  IC50: 4.57e-06 M
[3]
  IC50: 8.32e-08 M
  VPS34_1microM_% of cntrl: 7.88 % of cntrl

## C=CCCN1CCNC(=O)CN2CCN(CC2)Cc2cccc(c2)Nc2nccc(n2)-c2ccc(nc2)C1 [Compound 37]
[1]
  IC50: 7.59e-09 M
[2]
  IC50: 1.82e-07 M
[3]
  IC50: 9.55e-08 M

## O=C1CN2CCCN(CC2)Cc2cccc(c2)Nc2nccc(n2)-c2ccc(nc2)NCCCN1 [Compound 56]
[1]
  IC50: 4.07e-06 M
[2]
  IC50: 4.47e-06 M
[3]
  remaining activity at 1 µM: 3.19%
  IC50: 1.26e-08 M

## O=C1CN2CCN(CC2)Cc2cccc(c2)Nc2nccc(n2)-c2ccc(nc2)N2CC(O)CC2CCN1 (single isomer, unassigned) [Compound 90]
[1]
  IC50: 9.33e-06 M
[2]
  IC50: > 3.02e-05 M
[3]
  IC50: 2.09e-07 M
  VPS34_1microM_% of cntrl: 15.81 % of cntrl
